Laboratory results as given in patent publication US20170273917A1, “NMDA RECEPTOR ANTAGONISTS FOR TREATING GAUCHER DISEASE” (Yeda Research and Development Co. Ltd., priority 2014, published 2017).

Key:
NMDA receptor [1] = experiment: Survival of CBE-treated mice given NMDA receptor agonists or antagonists; type: in vivo, mouse
Description: (§1) Mice—Pure inbred mouse strains were obtained from the Jackson laboratories (USA), Harlan UK and Harlan Israel. Specifically, BTBR T^+ Itpr3^tf/J C3H/HeJ, DBA/2J, MRL/MpJ, WSB/EiJ, MOLF/Ei, PWD/PhJ, KK/HiJ, BPL/1J, I/LnJ, BPN/3J, and LP/J were obtained from Jackson; A/J, AKR/J, NZW/LacJ, 129S1/SvImJ were obtained from Harlan laboratories in the UK; and C57BL/6JOlaHsd, BALB/cJ and FVB/NJ were obtained from the Harlan laboratories in Israel. Gba^flox/flox; nestin-Cre mice, a mouse model of GD were generated as described in Vitner et al. Nature Medicine (2014) 20: 204-208; and Enquist, I. B. et al. Proc. Natl. Acad. Sci. USA (2007) 104: 17483-17488. These mice recapitulate many features of human nGD, although their Gba1 deficiency is restricted to neural and macroglial lineages. Mice were maintained under specific pathogen-free conditions and handled according to protocols approved by the Weizmann Institute Animal Care Committee according to international guidelines.
CBE injections—Conduritol-β-epoxide (CBE) was obtained from Calbiochem Millipore (Darmstadt, Germany). CBE at a dose of 25 mg or 50 mg per kg body weight per day or PBS (control) were administered i.p. to mice daily starting from postnatal day 8 (P8) of age.
(§2) Treatment with NMDA receptor agonists and antagonists—All agonists and antagonists were administered daily from P8. D-cycloserine (Sigma) was administered daily at a dose of 200 mg/kg/day. MK-801 (Sigma) was administered daily at a dose of 0.3 mg/Kg/day. Memantine (Sigma) was administered daily at a dose of 3 or 30 mg/Kg/day. Ifenprodil (Sigma) was administered daily at a dose of 9 mg/Kg/day.

NMDA receptor [2] = experiment: Survival of Gba flox/flox; nestin-Cre mice (genetic nGD model) treated with memantine; type: in vivo, mouse; conditions: memantine 3 or 30 mg/kg day from P8 vs PBS
Description: as §1, §2

GBA1 = target: T1, GBA1 (Mus musculus, UniProt P17439); experiment: GBA1 activity assay in brain homogenates of treated mice; type: in vivo; conditions: A/J mice, CBE plus memantine
T1 construct: from tissue; host or cells: mouse brain (frozen half-brain homogenate) of inbred strains treated in vivo with PBS, CBE or CBE plus memantine
T1 sequence (P17439 20-515): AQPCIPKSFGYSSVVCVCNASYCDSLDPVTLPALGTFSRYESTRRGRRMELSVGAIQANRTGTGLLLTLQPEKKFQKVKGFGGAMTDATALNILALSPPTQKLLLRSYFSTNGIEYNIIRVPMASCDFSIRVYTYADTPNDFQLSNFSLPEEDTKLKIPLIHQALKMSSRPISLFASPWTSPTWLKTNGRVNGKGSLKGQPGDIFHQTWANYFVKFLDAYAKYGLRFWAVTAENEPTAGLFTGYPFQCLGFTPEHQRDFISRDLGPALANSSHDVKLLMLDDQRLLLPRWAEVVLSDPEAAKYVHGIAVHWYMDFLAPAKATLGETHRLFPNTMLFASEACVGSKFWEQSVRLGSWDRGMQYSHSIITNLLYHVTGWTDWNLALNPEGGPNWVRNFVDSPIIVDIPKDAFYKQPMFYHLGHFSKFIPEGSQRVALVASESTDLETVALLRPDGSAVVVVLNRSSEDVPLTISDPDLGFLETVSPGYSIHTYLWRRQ
Protocol: GBA1 activity assay—GBA1 activity was performed as previously described (Farfel-Becker et al. Hum Mol Genet. 2014; 23(4):843-54). Briefly, frozen half-brain samples were sonicated in Mcllvaine's buffer (0.1 M citric acid, pH 4.2, 0.2 M Na2HPO4, 29:21, vol:vol). Tissue homogenates containing 50 μg of protein were incubated at 37° C. with 8 μM C6-NBD-GlcCer (Avanti Polar Lipids, Alabaster, Ala., USA) in a final volume of 25 μl Mcllvaine's buffer for 30 minutes. Lipids were extracted and the lower phase separated by thin layer chromatography using chloroform:methanol:9.8 mM CaCl2 (60:35:8, vol:vol:vol) as the developing solvent. C6-NBD-ceramide was identified with an authentic standard using a Typhoon 9410 variable mode imager and bands were quantified by Image-QuantTL (GE Healthcare, Chalfont St Giles, UK).
To eliminate the possibility that the phenotypic differences observed in the different mouse strains were caused by differential CBE metabolism in the brain, GBA1 enzymatic activity in mice treated for 10 days with CBE or PBS (control) was measured. […] Overall, the remaining GBA1 activity was 5-10% of the controls (FIG. 3A). There was no correlation between GBA1 activity in the brain and life spans neither in the PBS(R^2=0.126, data not shown) nor CBE conditions (R^2=0.0581, FIG. 3B). In addition, no correlation was found between inhibition of GBA1 activity and life span when evaluated according to strains (R^2=0.0085, data not shown).

[3] = test system: motor coordination of CBE-treated mice; experiment: Locomotor testing by the hanging wire test; type: in vivo, mouse
Description: Locomotor testing—Locomotor coordination was weekly evaluated in the treated strains by the hanging wire test, a validated test for LSD mouse models (Alvarez et al. 2008). Briefly, the mouse was placed with forepaws at a center of a horizontal bar (3 mm diameter; 35 mm long).
To further characterize the effect of CBE treatment on the different strains, motor behavior was followed weekly using the hanging wire test, starting at postnatal day 21 for a period of 2 months. The hanging wire test evaluates coordination and locomotor function, wherein a high score means better coordination. […] Of note, strains PWD/PhJ and WSB/EiJ were excluded in the motor behavior analysis due to their wild behavior.

N[C@@H]1CONC1=O [D-cycloserine]
life spans (NMDA receptor [1]; D-cycloserine 200 mg/kg/day, CBE-treated (25 mg/kg day) long living strains BALB/cJ, FVB/NJ, 129S1/SvImJ, BTBR T+ Itpr3tf/J, daily from P8): reduced the life spans

CC(C(O)c1ccc(O)cc1)N1CCC(Cc2ccccc2)CC1.O=C(O)C(O)C(O)C(=O)O (stereo not drawn) [Ifenprodil, α-(4-Hydroxyphenyl)-β-methyl-4-benzyl-1-piperidineethanol (+)-tartrate salt]
life spans (NMDA receptor [1]; Ifenprodil 9 mg/Kg/day, CBE (25 mg/kg day)-treated A/J mice, daily from P8): showed increments in the life spans

C[C@]12N[C@H](Cc3ccccc31)c1ccccc12 [MK-801]
survival (NMDA receptor [1]; MK-801 0.3 mg/Kg/day, CBE-treated (25 mg/Kg/day) C3H mice, daily from P8): extended the survival

CC12CC3CC(C)(C1)CC(N)(C3)C2.Cl [Memantine, 3,5-Dimethyl-1-adamantanamine hydrochloride]
survival (NMDA receptor [2]): significantly extended survival
interference with GBA1 inhibition in the brain (GBA1; brains harvested P18 or P70): did not interfere with GBA1 inhibition
cerebral GBA1 activity (GBA1; postnatal day 70 (P70)): almost undetectable
progression of the motor dysfunction induced by CBE (hanging wire test) ([3]; A/J mice, CBE plus memantine): delayed the progression of the motor dysfunction
hanging wire test score ([3]; memantine-treated CBE mice at postnatal day 49): the same score as CBE-treated mice at P21
life span (NMDA receptor [1]; memantine 3 mg/kg day plus CBE 25 mg/kg day, A/J, C3H/HeJ, DBA/2J and C57BL6/JolaHsd mice, daily from P8): significantly extended the life span
survival (NMDA receptor [1]; memantine 30 mg/kg/day, CBE 50 mg/kg/day, AJ mice, daily from P8): significantly extended survival
increase of life span compared with MK-801 (NMDA receptor [1]; neuropathic GD (CBE-treated) mice): to a greater extent than MK-801
